Assay results reported in ChEMBL document CHEMBL1153452, “Synthesis and in vitro affinities of various MDL 100907 derivatives as potential 18F-radioligands for 5-HT2A receptor imaging with PET” (Bioorg Med Chem, 2009).

Legend:
Histamine H2 receptor = Histamine H2 receptor (Homo sapiens, UniProt P25021)
[1] = molecular target: 5-hydroxytryptamine receptor 6 (Homo sapiens, UniProt P50406)
[2] = molecular target: 5-hydroxytryptamine receptor 2B (Homo sapiens, UniProt P41595)
Histamine H3 receptor = Histamine H3 receptor (Homo sapiens, UniProt Q9Y5N1)
[3] = molecular target: Alpha-1A adrenergic receptor (Homo sapiens, UniProt P35348)
D(1A) dopamine receptor = D(1A) dopamine receptor (Homo sapiens, UniProt P21728)
[4] = molecular target: T1, Alpha-1B adrenergic receptor (Homo sapiens, UniProt P35368)
T1 sequence (P35368 whole entry): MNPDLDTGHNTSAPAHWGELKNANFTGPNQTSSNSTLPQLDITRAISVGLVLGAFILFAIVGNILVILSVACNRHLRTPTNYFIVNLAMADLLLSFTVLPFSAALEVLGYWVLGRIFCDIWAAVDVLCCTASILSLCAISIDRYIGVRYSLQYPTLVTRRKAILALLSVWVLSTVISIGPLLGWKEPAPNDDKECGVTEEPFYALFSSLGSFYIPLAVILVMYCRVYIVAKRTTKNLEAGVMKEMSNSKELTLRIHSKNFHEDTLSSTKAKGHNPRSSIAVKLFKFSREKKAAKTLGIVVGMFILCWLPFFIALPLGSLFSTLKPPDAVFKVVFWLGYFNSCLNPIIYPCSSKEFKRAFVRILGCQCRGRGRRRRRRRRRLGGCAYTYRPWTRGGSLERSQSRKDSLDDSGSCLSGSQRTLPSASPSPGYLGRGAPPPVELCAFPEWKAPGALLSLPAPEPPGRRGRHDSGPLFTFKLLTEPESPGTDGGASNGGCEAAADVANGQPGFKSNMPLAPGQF

D(1B) dopamine receptor = D(1B) dopamine receptor (Homo sapiens, UniProt P21918)
D(2) dopamine receptor [5] = molecular target: T2, D(2) dopamine receptor (Homo sapiens, UniProt P14416)
[6] = molecular target: Beta-3 adrenergic receptor (Homo sapiens, UniProt P13945)
[7] = molecular target: 5-hydroxytryptamine receptor 1D (Homo sapiens, UniProt P28221)
D(4) dopamine receptor = D(4) dopamine receptor (Homo sapiens, UniProt P21917)
physchem = details: Soerensen buffer
Mu-type opioid receptor = Mu-type opioid receptor (Homo sapiens, UniProt P35372)
Histamine H1 receptor = Histamine H1 receptor (Homo sapiens, UniProt P35367)
[8] = molecular target: 5-hydroxytryptamine receptor 5A (Homo sapiens, UniProt P47898)
[9] = molecular target: T3, Alpha-2A adrenergic receptor (Homo sapiens, UniProt P08913)
T3 sequence (P08913 whole entry): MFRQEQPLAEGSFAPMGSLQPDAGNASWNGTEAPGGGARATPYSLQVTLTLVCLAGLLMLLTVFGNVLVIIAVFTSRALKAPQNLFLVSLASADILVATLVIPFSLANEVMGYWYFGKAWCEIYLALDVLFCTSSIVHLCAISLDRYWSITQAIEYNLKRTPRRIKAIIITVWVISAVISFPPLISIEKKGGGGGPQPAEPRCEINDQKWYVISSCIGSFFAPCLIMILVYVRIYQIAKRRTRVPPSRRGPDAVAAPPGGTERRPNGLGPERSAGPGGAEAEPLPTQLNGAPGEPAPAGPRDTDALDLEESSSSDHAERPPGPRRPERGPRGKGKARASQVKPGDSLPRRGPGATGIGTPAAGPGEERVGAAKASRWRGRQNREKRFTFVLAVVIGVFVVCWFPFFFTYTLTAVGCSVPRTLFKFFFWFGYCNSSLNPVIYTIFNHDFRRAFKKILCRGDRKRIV

[10] = molecular target: Sodium-dependent serotonin transporter (Homo sapiens, UniProt P31645)
[11] = molecular target: Sodium-dependent dopamine transporter (Homo sapiens, UniProt Q01959)
[12] = molecular target: T4, 5-hydroxytryptamine receptor 2A (Rattus norvegicus, UniProt P14842); experiment: biochemical
D(2) dopamine receptor [13] = molecular target: T2, D(2) dopamine receptor; experiment: Binding affinity to dopamine D2 receptor by competitive binding experiment
[14] = molecular target: T4, 5-hydroxytryptamine receptor 2A; experiment: Displacement of [3H]altanserine from rat cortical membrane 5HT2A receptor
[15] = molecular target: Alpha-2C adrenergic receptor (Homo sapiens, UniProt P18825)

Chain of Histamine H1 receptor (P35367 whole entry): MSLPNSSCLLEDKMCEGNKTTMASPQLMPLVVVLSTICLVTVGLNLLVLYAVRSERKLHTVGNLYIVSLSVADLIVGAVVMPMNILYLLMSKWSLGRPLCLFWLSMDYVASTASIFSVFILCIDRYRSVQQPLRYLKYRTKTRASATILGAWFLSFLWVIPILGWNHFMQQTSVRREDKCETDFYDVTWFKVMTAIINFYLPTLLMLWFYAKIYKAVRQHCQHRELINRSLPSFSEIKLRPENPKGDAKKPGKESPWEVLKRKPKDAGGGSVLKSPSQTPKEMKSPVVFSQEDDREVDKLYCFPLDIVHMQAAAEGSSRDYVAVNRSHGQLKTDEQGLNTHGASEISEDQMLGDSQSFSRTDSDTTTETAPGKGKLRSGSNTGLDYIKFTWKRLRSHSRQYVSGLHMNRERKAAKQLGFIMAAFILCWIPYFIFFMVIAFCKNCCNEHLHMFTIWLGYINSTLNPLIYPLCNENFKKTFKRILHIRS
Chain of Mu-type opioid receptor (P35372 whole entry): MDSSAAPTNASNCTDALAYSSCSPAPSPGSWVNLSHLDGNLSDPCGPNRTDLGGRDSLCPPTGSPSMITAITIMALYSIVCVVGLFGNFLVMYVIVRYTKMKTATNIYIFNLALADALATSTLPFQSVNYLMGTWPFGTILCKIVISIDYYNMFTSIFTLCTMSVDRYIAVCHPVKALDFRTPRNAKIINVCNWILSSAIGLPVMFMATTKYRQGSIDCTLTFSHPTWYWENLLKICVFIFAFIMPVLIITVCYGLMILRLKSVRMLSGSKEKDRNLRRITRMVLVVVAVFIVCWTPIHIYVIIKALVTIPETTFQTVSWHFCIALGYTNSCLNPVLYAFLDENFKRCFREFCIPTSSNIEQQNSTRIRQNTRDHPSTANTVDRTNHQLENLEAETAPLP
Chain of Histamine H2 receptor (P25021 whole entry): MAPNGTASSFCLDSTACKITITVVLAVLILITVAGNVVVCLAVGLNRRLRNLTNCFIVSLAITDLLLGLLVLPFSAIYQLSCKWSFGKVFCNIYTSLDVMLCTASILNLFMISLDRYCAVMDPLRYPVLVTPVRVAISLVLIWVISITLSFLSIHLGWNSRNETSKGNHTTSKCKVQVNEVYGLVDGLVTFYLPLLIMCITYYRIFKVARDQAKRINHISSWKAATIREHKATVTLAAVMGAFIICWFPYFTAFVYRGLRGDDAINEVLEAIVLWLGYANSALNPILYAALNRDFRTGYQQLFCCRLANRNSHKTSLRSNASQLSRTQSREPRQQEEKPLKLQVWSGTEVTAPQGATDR
Chain of D(4) dopamine receptor (P21917 whole entry): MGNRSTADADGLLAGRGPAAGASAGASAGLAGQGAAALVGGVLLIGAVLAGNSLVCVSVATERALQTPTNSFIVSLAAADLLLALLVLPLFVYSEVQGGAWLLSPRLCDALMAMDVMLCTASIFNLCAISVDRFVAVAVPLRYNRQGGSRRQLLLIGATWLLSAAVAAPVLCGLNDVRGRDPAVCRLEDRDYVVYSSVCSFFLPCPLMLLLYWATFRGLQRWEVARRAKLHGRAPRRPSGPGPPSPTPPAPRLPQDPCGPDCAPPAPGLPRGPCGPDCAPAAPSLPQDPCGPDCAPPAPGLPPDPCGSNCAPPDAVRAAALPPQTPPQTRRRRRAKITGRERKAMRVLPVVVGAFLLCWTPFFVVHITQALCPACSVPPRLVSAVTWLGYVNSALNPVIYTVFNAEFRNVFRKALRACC
Chain of Sodium-dependent dopamine transporter (Q01959 whole entry): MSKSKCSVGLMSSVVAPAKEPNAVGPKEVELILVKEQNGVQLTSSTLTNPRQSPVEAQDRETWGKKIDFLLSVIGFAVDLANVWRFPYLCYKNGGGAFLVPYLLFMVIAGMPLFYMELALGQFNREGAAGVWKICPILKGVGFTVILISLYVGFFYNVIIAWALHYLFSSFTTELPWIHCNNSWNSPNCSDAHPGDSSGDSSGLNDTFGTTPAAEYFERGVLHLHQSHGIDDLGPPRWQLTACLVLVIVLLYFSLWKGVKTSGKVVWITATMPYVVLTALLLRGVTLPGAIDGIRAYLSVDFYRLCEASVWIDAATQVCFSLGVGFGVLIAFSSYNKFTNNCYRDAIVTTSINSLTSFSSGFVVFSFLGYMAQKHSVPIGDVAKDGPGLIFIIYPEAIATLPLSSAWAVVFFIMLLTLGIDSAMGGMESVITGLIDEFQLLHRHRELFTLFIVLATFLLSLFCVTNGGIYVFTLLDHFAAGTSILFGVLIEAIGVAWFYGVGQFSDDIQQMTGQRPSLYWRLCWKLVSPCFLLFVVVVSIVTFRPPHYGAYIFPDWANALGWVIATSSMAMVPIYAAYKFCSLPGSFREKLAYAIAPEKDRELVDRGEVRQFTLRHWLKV
Chain of 5-hydroxytryptamine receptor 2B (P41595 whole entry): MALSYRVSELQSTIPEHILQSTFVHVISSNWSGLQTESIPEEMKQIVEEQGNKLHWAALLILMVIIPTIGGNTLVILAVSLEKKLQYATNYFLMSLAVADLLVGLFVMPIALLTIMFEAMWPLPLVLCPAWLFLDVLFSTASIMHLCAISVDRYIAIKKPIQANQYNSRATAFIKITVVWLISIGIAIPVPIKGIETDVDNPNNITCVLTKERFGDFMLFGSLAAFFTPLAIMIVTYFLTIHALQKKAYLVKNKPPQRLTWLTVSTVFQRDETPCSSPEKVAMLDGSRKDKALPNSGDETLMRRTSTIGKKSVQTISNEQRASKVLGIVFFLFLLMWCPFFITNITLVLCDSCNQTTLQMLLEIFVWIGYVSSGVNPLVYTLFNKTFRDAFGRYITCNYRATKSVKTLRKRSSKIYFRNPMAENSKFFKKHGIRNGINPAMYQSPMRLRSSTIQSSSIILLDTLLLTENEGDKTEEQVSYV
Chain of 5-hydroxytryptamine receptor 1D (P28221 whole entry): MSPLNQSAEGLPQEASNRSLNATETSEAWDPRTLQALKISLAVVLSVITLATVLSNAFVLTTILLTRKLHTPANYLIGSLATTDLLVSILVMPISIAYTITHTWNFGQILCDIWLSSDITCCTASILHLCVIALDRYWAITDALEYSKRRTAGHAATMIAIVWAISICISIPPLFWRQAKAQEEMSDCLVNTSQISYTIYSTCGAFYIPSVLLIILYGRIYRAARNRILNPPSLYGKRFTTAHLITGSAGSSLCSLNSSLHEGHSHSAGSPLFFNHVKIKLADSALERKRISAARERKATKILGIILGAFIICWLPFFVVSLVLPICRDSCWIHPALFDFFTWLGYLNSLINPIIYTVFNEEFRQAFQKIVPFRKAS
T4 sequence (P14842 whole entry): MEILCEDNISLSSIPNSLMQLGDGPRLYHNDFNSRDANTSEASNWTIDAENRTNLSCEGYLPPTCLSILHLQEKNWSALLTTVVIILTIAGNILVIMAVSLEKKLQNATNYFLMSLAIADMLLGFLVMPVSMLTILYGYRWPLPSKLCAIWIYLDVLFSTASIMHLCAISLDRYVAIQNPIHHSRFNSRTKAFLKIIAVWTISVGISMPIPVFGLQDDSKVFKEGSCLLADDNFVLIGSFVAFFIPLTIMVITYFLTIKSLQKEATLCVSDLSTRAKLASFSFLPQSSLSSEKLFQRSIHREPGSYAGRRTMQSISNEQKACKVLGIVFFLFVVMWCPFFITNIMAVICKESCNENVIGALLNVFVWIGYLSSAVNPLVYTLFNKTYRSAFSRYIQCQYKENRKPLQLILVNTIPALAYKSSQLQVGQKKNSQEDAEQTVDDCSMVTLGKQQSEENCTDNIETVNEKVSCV
Chain of D(1A) dopamine receptor (P21728 whole entry): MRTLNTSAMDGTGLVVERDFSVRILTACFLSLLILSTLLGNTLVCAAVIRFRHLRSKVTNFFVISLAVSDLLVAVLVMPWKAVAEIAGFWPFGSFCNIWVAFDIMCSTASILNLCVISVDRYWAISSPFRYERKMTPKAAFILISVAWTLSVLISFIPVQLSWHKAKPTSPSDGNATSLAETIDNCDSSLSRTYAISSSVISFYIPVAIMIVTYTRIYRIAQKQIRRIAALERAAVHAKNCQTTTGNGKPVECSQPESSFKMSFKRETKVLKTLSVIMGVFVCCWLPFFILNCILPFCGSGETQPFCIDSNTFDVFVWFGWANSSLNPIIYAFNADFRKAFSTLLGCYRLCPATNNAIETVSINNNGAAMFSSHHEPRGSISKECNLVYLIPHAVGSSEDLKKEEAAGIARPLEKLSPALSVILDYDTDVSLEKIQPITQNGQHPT
Chain of Beta-3 adrenergic receptor (P13945 whole entry): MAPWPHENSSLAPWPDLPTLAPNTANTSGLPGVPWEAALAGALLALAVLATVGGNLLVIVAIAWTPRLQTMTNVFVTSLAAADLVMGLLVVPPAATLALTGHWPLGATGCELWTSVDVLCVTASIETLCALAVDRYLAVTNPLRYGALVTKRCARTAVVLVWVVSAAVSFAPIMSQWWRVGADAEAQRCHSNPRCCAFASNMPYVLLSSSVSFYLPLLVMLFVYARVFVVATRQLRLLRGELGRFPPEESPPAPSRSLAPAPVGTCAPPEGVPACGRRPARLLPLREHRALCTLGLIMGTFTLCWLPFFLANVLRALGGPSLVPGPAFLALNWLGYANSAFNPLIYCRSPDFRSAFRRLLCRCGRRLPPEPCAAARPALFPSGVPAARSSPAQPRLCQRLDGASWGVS
Chain of 5-hydroxytryptamine receptor 6 (P50406 whole entry): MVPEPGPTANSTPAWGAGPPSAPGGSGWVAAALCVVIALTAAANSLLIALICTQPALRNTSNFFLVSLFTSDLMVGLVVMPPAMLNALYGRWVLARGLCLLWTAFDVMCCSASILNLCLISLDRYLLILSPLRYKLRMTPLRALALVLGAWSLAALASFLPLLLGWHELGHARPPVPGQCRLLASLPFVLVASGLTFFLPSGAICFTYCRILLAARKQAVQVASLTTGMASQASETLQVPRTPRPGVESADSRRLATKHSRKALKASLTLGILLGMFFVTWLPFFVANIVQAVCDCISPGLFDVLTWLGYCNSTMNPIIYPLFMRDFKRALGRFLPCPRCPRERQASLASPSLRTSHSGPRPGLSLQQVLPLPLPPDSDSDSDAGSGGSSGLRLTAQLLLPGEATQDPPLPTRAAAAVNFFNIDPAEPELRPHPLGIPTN

| Compound | Ki [1] [µM] | Ki [2] [nM] | Ki [7] [nM] | logP (physchem) | Ki [8] [µM] | Ki [12] [nM] | further results |
| --- | --- | --- | --- | --- | --- | --- | --- |
| COc1c(OCCF)cccc1[C@H](O)C1CCN(CCc2ccc(F)cc2)CC1 | 3.84 | 320 | 1060 | 2.8 | 6.81 | 0.72 | Ki (Histamine H2 receptor): 2430 nM; Ki (Histamine H3 receptor): > 10 µM; Ki [3]: 335 nM; Ki (D(1A) dopamine receptor): 3830 nM; Ki [4]: 500 nM; Ki (D(1B) dopamine receptor): 7.42 µM; Ki (D(2) dopamine receptor [5]): 2.69 µM; Ki [6]: > 10 µM; Ki (D(4) dopamine receptor): 442 nM; Ki (Mu-type opioid receptor): > 10 µM; Ki (Histamine H1 receptor): 509 nM; Ki [9]: > 10 µM; Ki [10]: 2.21 µM; Ki [11]: > 10 µM |
| COc1c(OCCF)cccc1C(O)C1CCN(CCc2ccccc2)CC1 (configuration not stated) |  |  |  | 2.92 |  | 1.63 |  |
| COc1ccc(CCN2CCC(C(O)c3cccc(OCCF)c3OC)CC2)cc1 (configuration not stated) | > 10 | 2750 | > 10000 | 2.72 | > 10 | 59 |  |
| O=C(c1ccc(F)cc1)C1CCN(CCn2c(=S)[nH]c3ccccc3c2=O)CC1 [ALTANSERIN] |  |  |  | 2.15 |  | 0.72 | Ki (D(2) dopamine receptor [13]): 62 nM; Ki [14]: 0.13 nM |
| COc1c(OCCF)cccc1C(O)C1CCN(C(=O)Cc2ccccc2)CC1 (configuration not stated) |  |  |  | 1.57 |  | 1990 |  |
| COc1cccc(C(O)C2CCN(Cc3ccc(F)cc3)CC2)c1OC (configuration not stated) |  |  |  |  |  | > 1000 |  |
| COc1c(OCCF)cccc1C(O)C1CCN(CCc2ccc(F)cc2)CC1 (configuration not stated) | 3.89 | 299 | 706 | 2.8 | > 10 |  | Ki (Histamine H2 receptor): 3180 nM; Ki (Histamine H3 receptor): > 10 µM; Ki (D(1A) dopamine receptor): 899 nM; Ki [4]: 325 nM; Ki (D(2) dopamine receptor [5]): > 10 µM; Ki [6]: > 10 µM; Ki [15]: 148 nM; Ki (D(4) dopamine receptor): 544 nM; Ki (Mu-type opioid receptor): > 10 µM; Ki (Histamine H1 receptor): 374 nM; Ki [9]: > 10 µM; Ki [10]: 3.52 µM; Ki [11]: > 10 µM |
| COc1c(O)cccc1C(O)C1CCN(CCc2ccc([N+](=O)[O-])cc2)CC1 (configuration not stated) |  |  |  | 1.9 |  |  |  |
| COc1c(OCCF)cccc1C(O)C1CCN(CCc2ccc([N+](=O)[O-])cc2)CC1 (configuration not stated) | > 10 | 1840 | 3420 | 2.37 | > 10 | 26 |  |
| COc1ccc(CCN2CCC(C(=O)c3cccc(OCCF)c3OC)CC2)cc1 | > 10 | 1970 | 1440 | 3.02 | > 10 | 153 |  |
| COc1c(OCCF)cccc1C(O)C1CCN(CCc2ccc(N)cc2)CC1 (configuration not stated) |  |  |  |  |  | 2.06 |  |
| COc1c(O)cccc1C(=O)C1CCN(CCc2ccc(F)cc2)CC1 |  |  |  |  |  | 1.34 |  |
| COc1ccc(CCN2CCC(C(O)c3cccc(OC)c3OC)CC2)cc1 (configuration not stated) |  |  |  |  |  | 55 |  |
| COc1c(OCCF)cccc1C(=O)C1CCN(CCc2ccc([N+](=O)[O-])cc2)CC1 | > 10 | 1050 | 1830 | 2.71 | > 10 | 118 |  |
| COc1c(O)cccc1[C@H](O)C1CCN(CCc2ccc(F)cc2)CC1 |  |  |  |  |  | 0.25 |  |
| COc1cccc(C(O)C2CCN(CCc3ccc([N+](=O)[O-])cc3)CC2)c1OC (configuration not stated) |  |  |  |  |  | 90 |  |
| COc1c(OCCF)cccc1C(=O)C1CCN(CCc2ccc(F)cc2)CC1 | > 10 | 960 | 713 | 3.08 | 1.58 | 3.23 | Ki (Histamine H2 receptor): 1760 nM; Ki (Histamine H3 receptor): > 10 µM; Ki [3]: 146 nM; Ki (D(1A) dopamine receptor): 1410 nM; Ki [4]: 550 nM; Ki (D(1B) dopamine receptor): 7.4 µM; Ki (D(2) dopamine receptor [5]): 3.83 µM; Ki [6]: > 10 µM; Ki [15]: 333 nM; Ki (D(4) dopamine receptor): 174 nM; Ki (Mu-type opioid receptor): > 10 µM; Ki (Histamine H1 receptor): 944 nM; Ki [9]: 0.863 µM; Ki [10]: 3.09 µM; Ki [11]: > 10 µM |
| COc1cccc(C(O)C2CCN(CCc3ccc(C)cc3)CC2)c1OC (configuration not stated) |  |  |  |  |  | 0.31 |  |
| COc1c(O)cccc1C(O)C1CCN(CCc2ccc(F)cc2)CC1 (configuration not stated) |  |  |  | 2.27 |  | 1.24 |  |
| COc1cccc([C@H](O)C2CCN(CCc3ccc(F)cc3)CC2)c1OC [VOLINANSERIN] |  |  |  | 2.98 |  |  |  |
